Test results: US20110230476A1, “PI3 KINASE INHIBITORS AND USES THEREOF” (AVILA THERAPEUTICS, INC., priority 2009, published 2011)

Assays:
PI3Kα (p110α/p85α) = target: T1, PI3Kα (p110α/p85α) (Homo sapiens, UniProt P42336); assay: HTRF assay, potency against active PI3Kα; type: biochemical; conditions: HTRF; [ATP]=50 μM, [di-C8-PIP2]=10 μM; 30 min pre-incubation; read-out: PI3Kα Inhibition
T1 construct: purchased BPS Bioscience (San Diego, Calif.) or Millipore (Billerica, Mass.)
Outline: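 IC50 came from a variable-slope fit of % inhibition, calculated from the HTRF emission ratio relative to wells with and without enzyme. Reactions with the active enzyme complex ran 30-60 minutes at 25 °C after ATP addition before stop and detection reagents.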

Phospho-Akt(Ser473) = assay: Dose response in SKOV3 cells as determined by Western blot; type: cell-based; conditions: Homo sapiens, SK-OV-3, 1 hr, Phospho-Akt normalized to total Akt, read-out: Immunoblot
Protocol: Dose Response in SKOV3 Cells as Determined by Western Blot
SKOV3 cells were plated in SKOV3 Growth Media (DMEM supplemented with 10% FBS and pen/strep) at a density of 4×10^5 cells per well of 12 well plates. Twenty four hours later the media was removed and replaced with 1 ml media containing test compound and 0.1% DMSO and cells were returned to the incubator for 1 hr. At the end of the hour, the media was removed and the cells were washed with PBS, then lysed and scraped into 30 ul of Cell Extraction Buffer (Biosource, Camarillo, Calif.) plus Complete Protease Inhibitor and PhosStop Phosphatase Inhibitor (Roche, Indianapolis, Ind.).
Cell debris was spun down at 13,000×g for 1 minute and the supernatant was taken as the cell lysate. Protein concentration of the lysate was determined by BCA Assay (Pierce Biotechnology, Rockford, Ill.) and 50 ug of protein was loaded per well onto a NuPAGE Novex 4-12% Bis-Tris gel (Invitrogen, Carlsbad, Calif.) then transferred to Immobilon PVDF-FL (Millipore, Billerica, Mass.).
The blot was blocked in Odyssey Blocking Buffer (Li-Cor Biosciences, Lincoln, Nebr.) for 1 hr then incubated overnight at 4° C. with mouse anti-Akt (#2920) and rabbit anti-Phospho-Akt(Ser473) (#9271)(Cell Signaling Technology, Boston, Mass.) antibodies, both diluted 1:1000 in PBS/Odyssey Buffer (1:1)+0.1% Tween-20. The blots were washed 3 times 5 minutes in PBS+0.2% Tween-20 then incubated for 1 hr at room temperature with fluorescently labeled secondary antibodies (Li-Cor) diluted 1:10000 in PBS/Odyssey Buffer (1:1)+0.1% Tween-20.
The blots were washed 2 times for 5 minutes in PBS+0.2% Tween-20, once in distilled water, then scanned on an Odyssey machine (Li-Cor). Band intensity was determined using the Odyssey software and Phopho-Akt signal was normalized to total Akt within samples, then expressed as a percentage of the untreated Phospho-Akt signal.

PI3Kγ (p120γ) = target: T2, PI3Kγ (p120γ) (Homo sapiens, UniProt P48736); assay: HTRF assay, potency against active PI3Kγ; type: biochemical; conditions: [ATP]=50 μM, [di-C8-PIP2]=10 μM, 30 min pre-incubation, read-out: PI3Kγ Inhibition
T2 construct: purchased BPS Bioscience (San Diego, Calif.) or Millipore (Billerica, Mass.)
T2 sequence (P48736 whole entry): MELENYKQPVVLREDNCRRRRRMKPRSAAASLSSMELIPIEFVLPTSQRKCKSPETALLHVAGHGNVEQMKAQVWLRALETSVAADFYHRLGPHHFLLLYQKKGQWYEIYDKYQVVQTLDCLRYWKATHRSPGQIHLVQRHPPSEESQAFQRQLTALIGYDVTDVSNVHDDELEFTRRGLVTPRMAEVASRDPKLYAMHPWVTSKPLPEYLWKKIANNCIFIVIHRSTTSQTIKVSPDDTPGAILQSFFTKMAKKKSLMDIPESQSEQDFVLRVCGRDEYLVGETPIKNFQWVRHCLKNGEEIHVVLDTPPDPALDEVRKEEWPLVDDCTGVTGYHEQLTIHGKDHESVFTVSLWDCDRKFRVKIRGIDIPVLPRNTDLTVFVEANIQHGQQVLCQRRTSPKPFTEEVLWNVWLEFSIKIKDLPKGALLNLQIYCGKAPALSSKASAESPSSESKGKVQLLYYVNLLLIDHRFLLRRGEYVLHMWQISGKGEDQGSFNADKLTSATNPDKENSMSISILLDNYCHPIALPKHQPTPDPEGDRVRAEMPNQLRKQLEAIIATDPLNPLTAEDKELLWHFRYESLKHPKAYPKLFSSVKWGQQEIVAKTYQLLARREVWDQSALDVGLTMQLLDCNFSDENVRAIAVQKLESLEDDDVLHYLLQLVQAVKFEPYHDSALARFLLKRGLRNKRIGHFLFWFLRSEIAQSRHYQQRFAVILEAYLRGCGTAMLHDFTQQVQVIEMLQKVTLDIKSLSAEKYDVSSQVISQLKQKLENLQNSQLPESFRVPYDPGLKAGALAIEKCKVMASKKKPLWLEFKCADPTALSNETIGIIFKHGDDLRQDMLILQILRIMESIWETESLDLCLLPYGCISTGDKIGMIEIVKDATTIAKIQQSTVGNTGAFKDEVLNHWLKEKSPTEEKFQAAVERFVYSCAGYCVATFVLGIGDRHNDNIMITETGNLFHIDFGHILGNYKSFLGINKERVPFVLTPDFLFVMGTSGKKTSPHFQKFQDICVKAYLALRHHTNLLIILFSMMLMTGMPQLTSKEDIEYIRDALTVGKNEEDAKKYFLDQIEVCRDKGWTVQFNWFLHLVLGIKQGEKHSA
Source text: Homogeneous Time Resolved Fluorescence (HTRF) Assay Protocol for Potency Assessment Against the Active Forms of PI3Kα, PI3Kβ, and PI3Kγ
The protocol below describes an end-point, competition-binding HTRF assay used to measure inherent potency of test compounds against active PI3Kα (p110α/p85α), PI3Kβ (p110β/p85α), and PI3Kγ (p120γ) enzymes. The mechanics of the assay platform are best described by the vendor (Millipore, Billerica, Mass.) on their website at the following URL: www.millipore.com/coa/tech1/74jt4z.
Briefly, Stop solution (Stop A, #33-007 and Stop B, #33-009; 3:1 ratio) and Detection Mix (from DMC, #33-015 with DMA, #33-011 and DMB, #33-013; 18:1:1 ratio) were prepared as recommended by the manufacturer about 2 hrs prior to use. Additionally, 1× reaction buffer (from 4× buffer stock# 33-003), 1.4× stocks of PI3Kα, PI3Kβ, and PI3Kγ enzymes from BPS Bioscience (San Diego, Calif.) or Millipore (Billerica, Mass.) with di-C8-PIP2 lipid substrate (#33-005), and a 4×ATP solution (#A7699 Sigma/Aldrich; St. Louis, Mo.) were prepared in 1× reaction buffer. 15 μL of PI3K enzymes and lipid substrate mix were pre-incubated in a Corning (#3573) 384-well, black, non-treated microtiter plate (Corning, N.Y.) for 30 min at 25° C. with a 0.5 μL volume of 50% DMSO and serially diluted compounds prepared in 50% DMSO. Lipid kinase reactions were started with the addition of 5 μL of ATP solution, mixed for 15 sec on a rotary plate shaker and incubated for 30-60 minutes at 25° C. Next, reactions were stopped with a 5 μL addition of Stop solution immediately followed by a 5 μL volume of Detection Mix. Stopped reactions were equilibrated for 1 and 18 hrs at room temperature and read in a Synergy^4 plate reader from BioTek (Winooski, Vt.) at λex330-80/λem620-35 and λem665-7.5. At the conclusion of each assay, the HTRF ratio from fluorescence emission values for each well was calculated and % Inhibition determined from averaged controls wells (+/−PI3K enzyme). % Inhibition values for each compound were then plotted against inhibitor concentration to estimate IC50 from log [Inhibitor] vs Response, Variable Slope model in GraphPad Prism from GraphPad Software (San Diego, Calif.).
[Reagent] used in optimized protocol: • [p110α/p85α]=0.5-1.5 nM, [ATP]=50 μM, [di-C8—PIP2]=10 μM • [p110β/p85α]=0.75 nM, [ATP]=50 μM, [di-C8—PIP2]=10 μM • [p120γ]=2-2.5 nM, [ATP]=50 μM, [di-C8—PIP2]=10 μM • (ATP KMapp for both enzymes was estimated to be 40-70 μM)

PI3K = PI3K HCT116 cellular assay (Western blot); type: cell-based; conditions: Homo sapiens, HCT-116, HCT116 colon cancer cells, 1 hour incubation, read-out: PI3K Inhibition
Protocol: PI3K HCT116 Cellular Assay
Selected compounds were assayed in HCT116 colon cancer cells. […] Cells were then washed with PBS, lysed and the protein lysates were then recovered and analyzed by Western blot.

T1 sequence (P42336 whole entry): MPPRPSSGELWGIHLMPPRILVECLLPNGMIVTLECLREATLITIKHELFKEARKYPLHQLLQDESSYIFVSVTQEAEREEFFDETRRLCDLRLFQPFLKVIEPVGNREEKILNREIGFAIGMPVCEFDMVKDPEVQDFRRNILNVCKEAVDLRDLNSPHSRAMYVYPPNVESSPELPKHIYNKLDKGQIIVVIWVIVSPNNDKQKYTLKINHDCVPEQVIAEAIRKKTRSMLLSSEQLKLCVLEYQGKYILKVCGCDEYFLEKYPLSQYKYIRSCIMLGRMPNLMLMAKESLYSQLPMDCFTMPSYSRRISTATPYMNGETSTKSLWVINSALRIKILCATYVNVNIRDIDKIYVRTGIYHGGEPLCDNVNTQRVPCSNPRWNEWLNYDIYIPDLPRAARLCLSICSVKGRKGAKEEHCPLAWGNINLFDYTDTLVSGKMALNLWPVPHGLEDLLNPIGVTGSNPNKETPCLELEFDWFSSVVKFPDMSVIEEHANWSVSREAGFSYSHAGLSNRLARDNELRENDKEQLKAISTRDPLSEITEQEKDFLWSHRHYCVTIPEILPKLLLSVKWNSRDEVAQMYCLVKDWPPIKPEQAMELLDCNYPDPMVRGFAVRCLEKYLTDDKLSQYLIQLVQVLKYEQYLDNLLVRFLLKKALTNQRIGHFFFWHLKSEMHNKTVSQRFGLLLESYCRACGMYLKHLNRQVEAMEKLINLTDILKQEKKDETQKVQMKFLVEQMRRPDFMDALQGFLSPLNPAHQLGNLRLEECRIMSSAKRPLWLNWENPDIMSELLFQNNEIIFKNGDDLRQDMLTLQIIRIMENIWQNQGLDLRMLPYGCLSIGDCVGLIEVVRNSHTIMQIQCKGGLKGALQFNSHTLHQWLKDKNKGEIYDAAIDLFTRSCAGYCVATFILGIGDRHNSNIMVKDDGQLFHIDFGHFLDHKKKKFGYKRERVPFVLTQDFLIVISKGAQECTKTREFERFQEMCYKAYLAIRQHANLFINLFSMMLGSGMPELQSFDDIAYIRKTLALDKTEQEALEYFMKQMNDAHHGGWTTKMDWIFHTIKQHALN
T1 sequence (P27986 whole entry partner): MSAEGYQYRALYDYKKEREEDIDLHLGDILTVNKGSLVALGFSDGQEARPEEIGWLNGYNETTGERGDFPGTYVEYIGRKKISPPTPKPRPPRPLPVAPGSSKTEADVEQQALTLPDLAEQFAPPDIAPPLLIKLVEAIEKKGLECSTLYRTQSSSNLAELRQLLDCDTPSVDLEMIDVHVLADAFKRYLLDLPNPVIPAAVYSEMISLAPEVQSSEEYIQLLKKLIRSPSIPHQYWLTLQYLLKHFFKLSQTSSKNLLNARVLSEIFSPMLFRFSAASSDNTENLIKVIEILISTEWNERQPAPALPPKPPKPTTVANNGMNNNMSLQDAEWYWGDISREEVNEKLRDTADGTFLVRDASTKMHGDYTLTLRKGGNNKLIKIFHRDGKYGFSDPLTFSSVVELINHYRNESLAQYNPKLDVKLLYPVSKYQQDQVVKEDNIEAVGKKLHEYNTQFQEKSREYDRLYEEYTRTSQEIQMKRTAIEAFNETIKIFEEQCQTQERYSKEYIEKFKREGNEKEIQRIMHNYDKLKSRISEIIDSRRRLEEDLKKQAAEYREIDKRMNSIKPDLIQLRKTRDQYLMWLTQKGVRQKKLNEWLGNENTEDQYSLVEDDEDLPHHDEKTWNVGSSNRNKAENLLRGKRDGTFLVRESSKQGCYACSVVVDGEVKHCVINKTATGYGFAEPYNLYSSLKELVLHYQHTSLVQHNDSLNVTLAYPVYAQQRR

SMILES | IC50 (PI3Kα (p110α/p85α)) [nM] | IC50 (PI3Kγ (p120γ)) [nM] | EC50 (PI3K) [nM] | EC50 (Phospho-Akt(Ser473)) [nM]
C=CC(=O)NCc1cccc(-c2cc3nc(-c4cccc(O)c4)nc(N4CCOCC4)c3s2)c1 [II-a-64, N-(3-(2-(3-hydroxyphenyl)-4-morpholinothieno[3,2-d]pyrimidin-6-yl)benzyl)acrylamide] | < 10 | – | – | 10 to 100
CC(C)=CC(=O)CCC(=O)NCCS(=O)(=O)N1CCN(Cc2cc3nc(-c4cccc(O)c4)nc(N4CCOCC4)c3s2)CC1 [II-a-28, N-(2-(4-((2-(3-hydroxyphenyl)-4-morpholinothieno[3,2-d]pyrimidin-6-yl)methyl)piperazin-1-ylsulfonyl)ethyl)-6-methyl-4-oxohept-5-enamide] | 100 to 1000 | 100 to 1000 | 20 to 100 | –
C=CC(=O)NCCS(=O)(=O)N1CCN(Cc2cc3nc(-c4cccc(O)c4)nc(N4CCOCC4)c3s2)CC1 [II-a-25, N-(2-(4-((2-(3-hydroxyphenyl)-4-morpholinothieno[3,2-d]pyrimidin-6-yl)methyl)piperazin-1-ylsulfonyl)ethyl)acrylamide] | 10 to 100 | 100 to 1000 | 20 to 100 | –
C=CC(=O)N1CCN(CC#Cc2cc3nc(-c4cccc(O)c4)nc(N4CCOCC4)c3s2)CC1 [II-a-47, 1-(4-(3-(2-(3-hydroxyphenyl)-4-morpholinothieno[3,2-d]pyrimidin-6-yl)prop-2-ynyl)piperazin-1-yl)prop-2-en-1-one] | 10 to 100 | > 1000 | 100 to 500 | –
C=CS(=O)(=O)N(C)Cc1cc2nc(-c3cccc(O)c3)nc(N3CCOCC3)c2s1 [II-a-29, N-((2-(3-hydroxyphenyl)-4-morpholinothieno[3,2-d]pyrimidin-6-yl)methyl)-N-methylethenesulfonamide] | 10 to 100 | 100 to 1000 | 100 to 500 | –
C=CC(=O)NCC(=O)N1CCN(Cc2cc3nc(-c4cccc5[nH]ncc45)nc(N4CCOCC4)c3s2)CC1 [II-a-6, N-(2-(4-((2-(1H-indazol-4-yl)-4-morpholinothieno[3,2-d]pyrimidin-6-yl)methyl)piperazin-1-yl)-2-oxoethyl)acrylamide] | 100 to 1000 | > 1000 | 2000 to 5000 | –

Further lines, with some results ahead:

IC50 (PI3Kα (p110α/p85α)) [nM] | IC50 (PI3Kγ (p120γ)) [nM] | EC50 (PI3K) [nM] | SMILES | EC50 (Phospho-Akt(Ser473)) [nM]
< 10 | – | – | C/C=C/C(=O)CCC(=O)N1CCC(C#Cc2cc3nc(-c4cccc(O)c4)nc(N4CCOCC4)c3s2)CC1 [II-a-89, (E)-1-(4-((2-(3-hydroxyphenyl)-4-morpholinothieno[3,2-d]pyrimidin-6-yl)ethynyl)piperidin-1-yl)hept-5-ene-1,4-dione] | 10 to 100
10 to 100 | – | – | C=CC(=O)Nc1ccc(CCNC(=O)c2cc(-c3cnc(N)nc3)nc(N3CCOCC3)c2)cc1 [XII-2, N-(4-acrylamidophenethyl)-2-(2-aminopyrimidin-5-yl)-6-morpholinoisonicotinamide] | ≥ 1000
10 to 100 | – | – | C=CC(=O)Nc1ccc(CN(C)Cc2cc3nc(-c4cnc(N)nc4)nc(N4CCOCC4)c3s2)cc1 [II-a-176, N-(4-((((2-(2-aminopyrimidin-5-yl)-4-morpholinothieno[3,2-d]pyrimidin-6-yl)methyl)(methyl)amino)methyl)phenyl)acrylamide] | 10 to 100
100 to 1000 | – | – | CC(C)=CC(=O)CCCC(=O)N1CCC(c2cc3nc(-c4cnc(N)nc4)cc(N4CCOCC4)c3s2)CC1 [II-g-6, 1-(4-(5-(2-aminopyrimidin-5-yl)-7-morpholinothieno[3,2-b]pyridin-2-yl)piperidin-1-yl)-7-methyloct-6-ene-1,5-dione] | 100 to 1000
100 to 1000 | > 1000 | 500 to 2000 | C=C(C)C(=O)CCCC(=O)N1CCN(c2ccnc3ccc(/C=C4\SC(Nc5c(Cl)cccc5Cl)=NC4=O)cc23)CC1 [V-3, (Z)-1-(4-(6-((2-(2,6-dichlorophenylamino)-4-oxothiazol-5(4H)-ylidene)methyl)quinolin-4-yl)piperazin-1-yl)-6-methylhept-6-ene-1,5-dione] | –
100 to 1000 | – | – | C=CC(=O)Nc1ccc(OCc2cc3nc(-c4cnc(N)nc4)nc(N4CCOCC4)c3s2)cc1 [II-a-172, N-(4-((2-(2-aminopyrimidin-5-yl)-4-morpholinothieno[3,2-d]pyrimidin-6-yl)methoxy)phenyl)acrylamide] | ≤ 10
10 to 100 | – | – | C=CC(=O)Nc1ccc(CCNC(=O)c2cc3nc(-c4cnc(N)nc4)nc(N4CCOCC4)c3s2)cc1 [II-a-154, N-(4-acrylamidophenethyl)-2-(2-aminopyrimidin-5-yl)-4-morpholinothieno[3,2-d]pyrimidine-6-carboxamide] | ≤ 10
10 to 100 | – | – | C=CC(=O)Nc1ccc(C(=O)N2CC=C(c3cc4nc(-c5cnc(N)nc5)nc(N5CCOCC5)c4s3)CC2)cc1 [II-a-156, N-(4-(4-(2-(2-aminopyrimidin-5-yl)-4-morpholinothieno[3,2-d]pyrimidin-6-yl)-1,2,3,6-tetrahydropyridine-1-carbonyl)phenyl)acrylamide] | ≤ 10
